Data taken from ChEMBL document CHEMBL1201862, “PubChem BioAssay data set” (2004).
The source made the active and inactive calls.

Assays:
[1] = biological target: T1, Polyadenylate-binding protein 1 (Homo sapiens, UniProt P11940); assay: MLLE domain peptide-binding blockers, IC50 – biochemical, fluorescence polarization, FITC-PAM2 peptide, dose response (AID 602259); type: functional; settings: read-out: IC50_Mean
[2] = biological target: T1, Polyadenylate-binding protein 1; assay: MLLE binding blockers, Cy5 peptide tracer – biochemical, fluorescence polarization, Cy5-PAM2 peptide, secondary, miRNA deadenylation inhibitor project, dose response (AID 602260); type: functional; settings: read-out: IC50_Mean
[3] = biological target: T2, Cytochrome P450 1A2 (Homo sapiens, UniProt P05177);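 further: PubChem cytochrome P450 panel assay, CYP1A2 panel member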
T2 sequence (P05177 whole entry): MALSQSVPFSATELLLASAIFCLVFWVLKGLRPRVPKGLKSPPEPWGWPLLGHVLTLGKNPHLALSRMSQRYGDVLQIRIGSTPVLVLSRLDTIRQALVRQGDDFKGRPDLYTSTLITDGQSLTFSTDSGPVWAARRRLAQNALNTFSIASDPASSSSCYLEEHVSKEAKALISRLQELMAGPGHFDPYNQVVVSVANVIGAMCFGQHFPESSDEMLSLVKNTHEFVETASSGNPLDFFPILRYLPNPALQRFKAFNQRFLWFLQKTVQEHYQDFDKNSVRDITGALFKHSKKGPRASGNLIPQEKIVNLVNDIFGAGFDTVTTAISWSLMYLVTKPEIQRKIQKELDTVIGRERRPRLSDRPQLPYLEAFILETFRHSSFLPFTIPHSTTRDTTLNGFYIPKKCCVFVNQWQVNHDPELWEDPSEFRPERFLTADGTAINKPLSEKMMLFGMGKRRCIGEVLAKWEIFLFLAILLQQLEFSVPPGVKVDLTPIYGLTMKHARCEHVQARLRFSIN

[4] = biological target: Cytochrome P450 3A4 (Homo sapiens, UniProt P08684);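 further: CYP3A4 tested as one member of a cytochrome P450 panel screen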
Sequence of Cytochrome P450 3A4 (P08684 whole entry): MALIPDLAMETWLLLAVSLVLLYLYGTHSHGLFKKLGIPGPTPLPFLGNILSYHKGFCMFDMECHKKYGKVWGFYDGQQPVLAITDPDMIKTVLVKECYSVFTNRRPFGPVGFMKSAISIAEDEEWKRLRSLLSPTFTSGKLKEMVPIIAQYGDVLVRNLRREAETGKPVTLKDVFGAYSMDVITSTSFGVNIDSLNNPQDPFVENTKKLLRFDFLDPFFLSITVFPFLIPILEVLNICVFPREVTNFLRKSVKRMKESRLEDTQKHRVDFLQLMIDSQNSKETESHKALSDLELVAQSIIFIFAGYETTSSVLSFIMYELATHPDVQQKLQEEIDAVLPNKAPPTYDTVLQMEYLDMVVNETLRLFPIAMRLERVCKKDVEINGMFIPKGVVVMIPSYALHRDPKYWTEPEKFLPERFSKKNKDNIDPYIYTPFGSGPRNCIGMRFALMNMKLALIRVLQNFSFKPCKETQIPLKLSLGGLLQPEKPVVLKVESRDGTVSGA

[5] = biological target: Cytochrome P450 2D6 (Homo sapiens, UniProt P10635);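 further: CYP2D6 member of a cytochrome P450 panel assay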
Sequence of Cytochrome P450 2D6 (P10635 whole entry): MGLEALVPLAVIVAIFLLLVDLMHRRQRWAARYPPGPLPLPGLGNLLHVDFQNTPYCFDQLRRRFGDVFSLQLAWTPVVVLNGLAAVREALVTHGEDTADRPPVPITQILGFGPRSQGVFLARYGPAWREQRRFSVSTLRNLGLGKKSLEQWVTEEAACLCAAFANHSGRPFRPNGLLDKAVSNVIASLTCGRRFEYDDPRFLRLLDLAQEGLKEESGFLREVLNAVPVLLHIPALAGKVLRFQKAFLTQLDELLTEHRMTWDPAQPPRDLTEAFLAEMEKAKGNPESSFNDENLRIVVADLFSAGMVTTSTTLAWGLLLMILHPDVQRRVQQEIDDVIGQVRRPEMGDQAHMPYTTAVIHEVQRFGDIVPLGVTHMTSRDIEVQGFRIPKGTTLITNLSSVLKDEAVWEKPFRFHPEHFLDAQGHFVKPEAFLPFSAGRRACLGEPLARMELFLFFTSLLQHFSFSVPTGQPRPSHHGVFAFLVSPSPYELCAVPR

[6] = biological target: T3, Heat shock factor protein 1 (Mus musculus, UniProt P38532); assay: decrease of HSF1-responsive luciferase luminescence – cell-based, NIH3T3, dose retest, confirmation (AID 2382); type: functional;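 further: NIH3T3 fibroblasts with HSF1-driven luciferase reporter stressed by proteasome inhibitor MG132; luminescence from HSF1-driven luciferase expression after 8 hours of MG132 stress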
T3 sequence (P38532 whole entry): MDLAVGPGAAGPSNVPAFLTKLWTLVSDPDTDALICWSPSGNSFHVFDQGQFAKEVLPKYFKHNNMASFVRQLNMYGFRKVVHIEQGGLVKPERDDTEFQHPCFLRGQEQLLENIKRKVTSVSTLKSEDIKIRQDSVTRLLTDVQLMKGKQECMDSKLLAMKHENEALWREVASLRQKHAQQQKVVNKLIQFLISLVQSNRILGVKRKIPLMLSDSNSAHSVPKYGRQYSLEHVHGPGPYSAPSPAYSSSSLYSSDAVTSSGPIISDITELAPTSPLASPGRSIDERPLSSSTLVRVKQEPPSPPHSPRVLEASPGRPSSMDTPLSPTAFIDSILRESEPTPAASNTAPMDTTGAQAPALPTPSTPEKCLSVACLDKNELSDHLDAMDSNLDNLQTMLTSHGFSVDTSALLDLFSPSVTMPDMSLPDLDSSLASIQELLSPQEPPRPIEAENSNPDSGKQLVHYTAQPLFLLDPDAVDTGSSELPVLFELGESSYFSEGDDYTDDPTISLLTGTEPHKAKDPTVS

[7] = biological target: Cytochrome P450 2C19 (Homo sapiens, UniProt P33261); assay: Cytochrome panel assay with activity outcomes. Panel member name: p450-cyp2c19 Compounds with AC50 equal or less than 10 uM are considered active; type: functional; settings: read-out: AC50
Sequence of Cytochrome P450 2C19 (P33261 whole entry): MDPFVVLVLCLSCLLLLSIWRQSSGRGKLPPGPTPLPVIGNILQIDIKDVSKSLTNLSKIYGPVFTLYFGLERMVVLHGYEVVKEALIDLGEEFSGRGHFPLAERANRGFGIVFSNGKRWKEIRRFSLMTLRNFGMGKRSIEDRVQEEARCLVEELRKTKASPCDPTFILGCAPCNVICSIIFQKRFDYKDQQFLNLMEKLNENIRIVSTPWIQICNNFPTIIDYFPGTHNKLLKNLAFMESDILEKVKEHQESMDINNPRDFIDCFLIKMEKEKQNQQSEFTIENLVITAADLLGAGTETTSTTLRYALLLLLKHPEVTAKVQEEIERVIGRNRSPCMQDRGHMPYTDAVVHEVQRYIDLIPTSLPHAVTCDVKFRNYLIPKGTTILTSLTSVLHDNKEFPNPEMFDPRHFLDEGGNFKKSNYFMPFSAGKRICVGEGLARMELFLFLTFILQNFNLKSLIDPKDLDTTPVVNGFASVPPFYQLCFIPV

[8] = biological target: T4, Calpain-2 catalytic subunit (Sus scrofa, UniProt P43367); assay: m-calpain protease blockers, concentration series – biochemical, fluorogenic peptide substrate, dose response (AID 1420); type: functional
T4 sequence (P43367 whole entry): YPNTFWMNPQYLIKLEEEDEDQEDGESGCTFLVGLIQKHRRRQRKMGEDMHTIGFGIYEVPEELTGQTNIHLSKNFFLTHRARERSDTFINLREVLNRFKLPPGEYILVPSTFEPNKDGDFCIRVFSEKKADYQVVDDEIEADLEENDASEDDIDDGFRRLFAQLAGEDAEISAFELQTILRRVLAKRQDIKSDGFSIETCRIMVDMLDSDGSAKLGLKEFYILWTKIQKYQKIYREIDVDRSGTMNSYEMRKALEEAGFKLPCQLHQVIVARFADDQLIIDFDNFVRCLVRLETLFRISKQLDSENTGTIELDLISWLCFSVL

[9] = biological target: T5, RNA-binding protein pos-1 (Caenorhabditis elegans, UniProt G5EF15); assay: disruptors of C. elegans POS-1 RNA interaction – biochemical, fluorescence polarization, dose response (AID 1964);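 further: purified POS-1 fused to maltose binding protein made in E. coli; potency of compounds blocking POS-1 binding to fluorescent RNA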
T5 sequence (G5EF15 whole entry): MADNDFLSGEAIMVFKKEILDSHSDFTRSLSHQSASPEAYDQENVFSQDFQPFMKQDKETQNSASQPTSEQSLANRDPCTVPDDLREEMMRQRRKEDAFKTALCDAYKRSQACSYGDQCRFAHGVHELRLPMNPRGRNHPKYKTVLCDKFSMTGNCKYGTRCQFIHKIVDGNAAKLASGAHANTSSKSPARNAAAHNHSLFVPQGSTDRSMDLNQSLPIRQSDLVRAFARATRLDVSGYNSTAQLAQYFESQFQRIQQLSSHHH

[10] = biological target: T6, Zinc finger protein mex-5 (Caenorhabditis elegans, UniProt Q9XUB2); assay: potency of MEX-5 RNA-binding blockers – biochemical, C. elegans, fluorescence polarization, dose response (AID 1960)
T6 sequence (Q9XUB2 whole entry): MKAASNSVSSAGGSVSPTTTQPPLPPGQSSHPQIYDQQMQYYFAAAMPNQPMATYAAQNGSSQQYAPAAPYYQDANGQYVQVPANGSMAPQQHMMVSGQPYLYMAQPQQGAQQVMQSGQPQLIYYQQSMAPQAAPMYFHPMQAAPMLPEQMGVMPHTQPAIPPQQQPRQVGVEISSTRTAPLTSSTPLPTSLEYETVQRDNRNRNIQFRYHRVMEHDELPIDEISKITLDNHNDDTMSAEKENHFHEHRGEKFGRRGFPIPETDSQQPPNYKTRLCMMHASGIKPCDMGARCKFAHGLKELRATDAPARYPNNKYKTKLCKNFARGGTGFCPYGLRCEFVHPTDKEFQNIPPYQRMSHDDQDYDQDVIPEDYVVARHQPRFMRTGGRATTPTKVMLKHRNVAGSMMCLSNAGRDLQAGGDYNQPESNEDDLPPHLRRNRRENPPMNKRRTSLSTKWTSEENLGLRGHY

[11] = fluconazole-exposed Candida albicans growth modulators – fluorescence, retest, confirmation (AID 2467); type: functional, cell-based
[12] = test system: H9c2; assay: cells; type: functional, cell-based; settings: Rattus norvegicus, H9c2, Myocardium;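 further: confirmatory concentration-response retest of ultra-high-throughput screening hits for modulation of myocardial damage; cell death induced by hydrogen peroxide oxidative stress; compound pretreatment for 60 min then peroxide exposure for 2 h; potency is for protecting the cells against peroxide damage rather than for killing them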
[13] = NIH-3T3 fibroblast cytotoxicity, dose response, cytotoxicity control, cell-based, fluorescence, Alamar Blue, secondary assay (AID 2327); type: functional;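 further: NIH-3T3 mouse fibroblasts cultured with fluconazole at 8 µg/mL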
[14] = biological target: T7, Rac GTPase-activating protein 1 (Homo sapiens, UniProt Q9H0H5); assay: blockers of MgcRacGAP-driven Rac1 GTP hydrolysis – biochemical, ADP Hunter fluorescence, primary and confirmatory, confirmation (AID 624330); type: functional
T7 sequence (Q9H0H5 whole entry): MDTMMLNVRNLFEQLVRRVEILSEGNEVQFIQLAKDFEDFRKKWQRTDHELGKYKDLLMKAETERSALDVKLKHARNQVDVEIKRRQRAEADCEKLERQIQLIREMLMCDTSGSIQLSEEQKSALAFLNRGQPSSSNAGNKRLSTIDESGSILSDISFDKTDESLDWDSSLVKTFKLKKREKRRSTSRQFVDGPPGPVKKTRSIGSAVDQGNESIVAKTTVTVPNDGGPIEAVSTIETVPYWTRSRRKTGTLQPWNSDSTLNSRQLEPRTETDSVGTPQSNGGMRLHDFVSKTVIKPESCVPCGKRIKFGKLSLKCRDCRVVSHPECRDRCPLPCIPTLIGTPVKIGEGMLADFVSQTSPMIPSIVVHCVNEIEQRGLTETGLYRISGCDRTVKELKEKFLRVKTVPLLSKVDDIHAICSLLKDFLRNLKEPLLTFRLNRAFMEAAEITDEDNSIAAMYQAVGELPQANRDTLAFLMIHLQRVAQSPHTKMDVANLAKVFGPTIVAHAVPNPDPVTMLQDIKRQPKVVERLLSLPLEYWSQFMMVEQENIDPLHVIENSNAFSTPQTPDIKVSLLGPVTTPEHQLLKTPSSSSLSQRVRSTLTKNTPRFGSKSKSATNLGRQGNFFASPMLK

[15] = biological target: Cytochrome P450 2C9 (Homo sapiens, UniProt P11712)
Sequence of Cytochrome P450 2C9 (P11712 whole entry): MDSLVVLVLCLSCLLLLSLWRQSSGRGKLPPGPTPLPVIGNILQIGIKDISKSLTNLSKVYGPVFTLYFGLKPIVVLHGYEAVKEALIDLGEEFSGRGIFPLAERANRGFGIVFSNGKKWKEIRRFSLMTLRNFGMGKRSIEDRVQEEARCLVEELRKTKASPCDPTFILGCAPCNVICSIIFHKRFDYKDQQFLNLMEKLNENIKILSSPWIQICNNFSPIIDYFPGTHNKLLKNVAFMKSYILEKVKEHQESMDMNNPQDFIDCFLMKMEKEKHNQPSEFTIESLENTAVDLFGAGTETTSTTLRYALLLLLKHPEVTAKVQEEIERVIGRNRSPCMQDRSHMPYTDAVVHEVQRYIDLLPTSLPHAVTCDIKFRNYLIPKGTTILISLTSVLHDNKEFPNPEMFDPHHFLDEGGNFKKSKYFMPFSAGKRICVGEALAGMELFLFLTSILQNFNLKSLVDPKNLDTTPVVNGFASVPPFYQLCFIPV

[16] = Luminescence Cell-Based Dose Retest to Confirm Inhibitors of Cancer Stem Cells. [Related pubchem assays (depositor defined):AID2717, AID2721]; type: functional; settings: Homo sapiens

T1 sequence (P11940 whole entry, the tested form may be a part): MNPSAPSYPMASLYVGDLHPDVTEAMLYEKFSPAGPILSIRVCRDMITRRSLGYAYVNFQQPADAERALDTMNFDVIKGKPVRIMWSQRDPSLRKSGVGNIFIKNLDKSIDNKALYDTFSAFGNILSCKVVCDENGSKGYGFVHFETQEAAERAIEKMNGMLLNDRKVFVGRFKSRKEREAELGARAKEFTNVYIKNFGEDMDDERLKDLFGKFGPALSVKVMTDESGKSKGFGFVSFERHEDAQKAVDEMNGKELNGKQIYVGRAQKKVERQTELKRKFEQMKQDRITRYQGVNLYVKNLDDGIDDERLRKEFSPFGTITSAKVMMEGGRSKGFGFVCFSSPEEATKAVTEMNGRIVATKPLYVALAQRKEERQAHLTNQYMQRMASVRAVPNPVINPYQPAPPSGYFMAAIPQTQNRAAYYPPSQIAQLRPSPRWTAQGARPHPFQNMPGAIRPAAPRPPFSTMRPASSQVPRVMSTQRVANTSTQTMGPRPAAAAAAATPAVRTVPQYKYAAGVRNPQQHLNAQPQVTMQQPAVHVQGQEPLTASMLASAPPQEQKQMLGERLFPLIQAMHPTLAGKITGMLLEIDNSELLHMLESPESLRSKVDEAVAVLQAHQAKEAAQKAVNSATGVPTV

In the case of `NS(=O)(=O)c1ccc(NC(S)=Nc2ccc(S(=O)(=O)N3CCCC3)cc2)cc1`, the IC50 [1] is reported as > 66 µM (inactive) and the IC50 [2] is reported as > 66 µM (inactive).

In the case of `Cc1onc(-c2ccccc2)c1C(=O)NC(=S)NNC(=O)c1ccncc1`, the IC50 [1] is reported as > 66 µM (inactive) and the IC50 [2] is reported as > 66 µM (inactive).

For `Cc1ccc(CNC(=O)Cn2cncn2)cc1`, the AC50 [3] was 39.8 µM (inconclusive), the AC50 [4] was 14.1 µM (inconclusive) and the AC50 [5] was 17.8 µM (inconclusive).

In the case of `Cc1cc(O)cc(O)c1/C=N/NC(=O)c1ccc2c(c1)OCCO2`, the IC50 [1] is reported as 30.8 µM (inactive) and the IC50 [2] is reported as > 66 µM (inactive).

In the case of `CCCCN(C(=S)NC(=O)c1ccccc1)c1c(N)n(Cc2ccccc2)c(=O)[nH]c1=O`, the IC50 [1] is reported as > 66 µM (inactive) and the IC50 [2] is reported as > 66 µM (inactive).

In the case of `c1ccc2c(c1)-c1ccccc1C2N1C[C@H]2CC[C@H](CC2)C1`, the AC50 [3] is reported as 0.501 µM (inconclusive).

In the case of `Cc1ccc(-c2nc3cnccn3c2Nc2c(C)cccc2C)o1`, the EC50 [6] is reported as > 195 µM (not active), the IC50 [1] is reported as > 66 µM (inactive) and the IC50 [2] is reported as > 66 µM (inactive).

For `COC(=O)C1CCN(CC(=O)Nc2sc3c(c2C#N)CCC3)CC1`, the AC50 [3] was 15.8 µM (inconclusive).

In the case of `Cc1ccc(-c2nc3ccccc3o2)cc1NC(=O)Cc1cccs1`, the AC50 [3] is reported as 2 µM (inconclusive) and the AC50 [7] is reported as 15.8 µM (inconclusive).

With `CCc1ccccc1N(C(C)=O)c1nc(CN=C=S)cs1` the IC50 [8] was 14.5 µM (not active).

In the case of `CCCNC(=O)c1ccc2c(O)c(O)c(-c3ccc(F)cc3)nc2c1`, the EC50 [9] is reported as 7.74 µM (inconclusive), the EC50 [10] is reported as 4.47 µM (inconclusive) and the EC50 [11] is reported as > 38 µM (not active). For the same molecule, the IC50 [12] was 14.1 µM (active) and the EC50 [13] was > 150 µM (inactive).

For `FC(F)(F)c1ccccc1-c1cncnc1NCCN1CCOCC1`, the AC50 [3] was 2.51 µM (inconclusive), the AC50 [7] was 20 µM (inconclusive) and the AC50 [5] was 15.8 µM (inconclusive).

For `Oc1ccc(Br)cc1/C=N/c1ccc2[nH]ncc2c1`, the IC50 [14] was 32.1 µM (active) and the IC50 [12] was 12.6 µM (active).

For `O=C(Nc1cccc(F)c1)N1CCCC2(CCN(C(=O)Oc3ccccc3)CC2)C1`, the AC50 [3] was 10 µM (inconclusive), the AC50 [15] was 39.8 µM (inconclusive) and the AC50 [7] was 25.1 µM (inconclusive).

For `O=C(c1ccc(Cl)cc1)c1oc2ccccc2c1CS(=O)(=O)c1ccccc1`, the IC50 [8] was > 50 µM (not active).

For `O=C(NC(=S)Nc1ccc(S(=O)(=O)Nc2nccs2)cc1)c1ccccc1`, the IC50 [1] was > 66 µM (inactive) and the IC50 [2] was > 66 µM (inactive).

In the case of `O=C(O)c1ccc(Cl)c(NC(=S)NC(=O)c2ccccc2[N+](=O)[O-])c1`, the IC50 [1] is reported as > 66 µM (inactive) and the IC50 [2] is reported as > 66 µM (inactive).

With `COc1ccc(N2C(=O)CC(SCCc3nc4ccccc4[nH]3)C2=O)cc1` (stereo unspecified) the IC50 [1] was > 66 µM (inactive) and the IC50 [2] was > 66 µM (inactive).

With `COc1cc(/C=N/NC(=O)COc2cccc(F)c2)ccc1OS(=O)(=O)c1ccc(C)cc1` the IC50 [8] was 2.21 µM (not active).

For `N=C(N)SCc1cc(Cl)cc(Cl)c1O`, the AC50 [3] was 5.01 µM (inconclusive).

With `CCOC(=O)N1CCC2(CC1)C(C#N)=C(N)Oc1[nH]nc(CSc3ccc(C)cc3)c12` the IC50 [8] was 3.34 µM (not active).

For `NCCCCNS(=O)(=O)c1cccc2c(Cl)cccc12`, the AC50 [3] was 15.8 µM (inconclusive), the AC50 [15] was 12.6 µM (inconclusive) and the AC50 [4] was 25.1 µM (inconclusive). For the same molecule, the AC50 [5] was 39.8 µM (inconclusive).

With `CC(C)c1ccc(N2C(=O)CC(Sc3ncccn3)C2=O)cc1` (stereo unspecified) the IC50 [1] was > 66 µM (inactive) and the IC50 [2] was > 66 µM (inactive).

For `NC(=O)CC(NC(=O)Cc1ccc(Br)cc1)c1ccc(NCC2CC2)c([N+](=O)[O-])c1` (stereo unspecified), the IC50 [8] was 14.6 µM (not active).

With `Cc1ccc(Cl)cc1N1C(=O)CC(Sc2ncccn2)C1=O` (stereo unspecified) the IC50 [1] was > 66 µM (inactive) and the IC50 [2] was > 66 µM (inactive).

With `CC(=O)NCc1c(Cl)cccc1-n1cccc1` the AC50 [3] was 15.8 µM (inconclusive), the AC50 [15] was 28.2 µM (inconclusive) and the AC50 [7] was 11.2 µM (inconclusive). For the same molecule, the AC50 [4] was 39.8 µM (inconclusive).

For `C=C(C)CNC(=S)N/N=C/c1ccc(NC(C)=O)cc1`, the IC50 [8] was 13.5 µM (not active).

In the case of `c1ccc(CNc2nc(-c3cccnc3)nc3ccccc23)cc1`, the AC50 [3] is reported as 0.398 µM (active), the AC50 [7] is reported as 15.8 µM (active) and the AC50 [5] is reported as 15.8 µM (active).

For `SC1=NC[C@H](Cc2ccccc2)N1CCCCC1CCCCC1`, the AC50 [16] was 6.26 µM (active) and the IC50 [8] was 7.52 µM (not active).
